Consider 1 compound from patent publication US20100249107A1, “Biomarkers for Alzheimer's Disease Progression” (priority 2006, published 2010).

This assay relates to patients suffering from MCI. The assay can be described thus: InDDEx (ENA713B IA07) clinical trial: conversion from MCI to AD. The format is in vivo, human. From the text:
Introduction and summary. The purpose of this EXAMPLE is to describe genetic association studies identifying twenty-five (25) AD-associated mutations of the invention. Genome-wide analyses for genetic association studies have only become possible within the past two years. The Investigation Into Delay to Diagnosis of Alzheimer's Disease With Exelon (InDDex; ENA713B IA07) clinical trial followed patients suffering from MCI and given either Exelon (rivastigmine) at various doses or placebo and followed their conversion to AD.

Take `CCN(C)C(=O)Oc1cccc([C@H](C)N(C)C)c1` [Exelon, rivastigmine]: the “Converted to AD, %” value reads like this: (All patients (enrolled in and completed the clinical study), Exelon arm n = 508) 17.32%; (Genome scan population (consented for pharmacogenetic study and passed the 100K scan), Exelon arm n = 211) 17.06%.
